According to patent US5719278A, “Tricyclic benzazepine vasopressin antagonists” (American Cyanamid Company, priority 1996, dated 1998):

How the values were obtained:
[1] = molecular target: T1, Rat Kidney Medullary V2 Receptors (Rattus norvegicus, UniProt Q00788); experiment: Binding Assay to Rat Kidney Medullary V2 Receptors; settings: for IC50: Rat Kidney Medullary V2 Receptors (no asterisk)
T1 construct: Medullary tissues from rat kidneys are dissected out; from tissue; host or cells: rat kidney medulla membranes
Description: Binding Assay to Rat Kidney Medullary V2 Receptors
Medullary tissues from rat kidneys are dissected out, cut into small pieces and let soak in a […] sodium chloride solution containing 1.0 mM EDTA with many changes of the liquid phase, until the solution is clear of blood. The tissue is homogenized in a 0.25M sucrose solution containing 1.0 mM EDTA and 0.1 mM PMSF using a Potter-Elvehjem homogenizer with a teflon pestle. The homogenate is filtered through several layers (4 layers) of cheese cloth. The filtrate is rehomogenized using a dounce homogenizer, with a tight fitting pestle. The final homogenate is contrifuged at 1500×g for 15 min. The nuclear pellet is discarded and the supernatant fluid recentrifuged at 40,000×g for 30 min. The resulting pellet formed contains a dark inner part with the exterior, slightly pink. The pink outer part is suspended in a small amount of 50.0 mM Tris.HCl buffer, pH 7.4. The protein content is determined by the Lowry's method (Lowry et al, J. Biol. Chem., 1953). The membrane suspension is stored at -70° C., in 50.0 mM Tris.HCl, containing 0.2% inactivated BSA and 0.1 mM PMSF in aliquots of 1.0 ml containing 10.0 mg protein per ml of suspension until use in subsequent binding experiments.
For binding experiments, the following is added in μl volume to wells of a 96 well format of a microtiter plate: 100.0 μl of 100.0 mM Tris.HCl buffer containing 0.2% heat inactivated BSA, 10.0 mM MgCl2 and a mixture of protease inhibitors: leupeptin, 1.0 mg %; aprotinin, 1.0 mg %; 1,10-phenanthroline, 2.0 mg %; trypsin inhibitor, 10.0 mg % and 0.1 mM PMSF, 20.0 μl of [^3 H]Arginine^8, vasopressin (S.A. 75.0 Ci/mmole) at 0.8 nM and the reaction initiated by the addition of 80.0 μl of tissue membranes (200.0 μg tissue protein). The plates are left undisturbed on the bench top for 120 min. to reach equilibrium. Non-specific binding is assessed in the presence of 1.0 μM of unlabeled ligand, added in 20 μl volume. For test compounds, these are solubilized in 50% dimethylsulfoxide (DMSO) and added in 20.0 μl volume to a final incubation volume of 200 μl. Upon completion of binding, the content of each well is filtered off, using a Brandel® cell Harvester (Gaithersburg, Md.). The radioactivity trapped on the filter disk by the ligand-receptor complex is assessed by liquid scintillation counting in a Packard LS Counter, with an efficiency of 65% for tritium. The data are analyzed for IC50 values by the LUNDON-2 program for competition (LUNDON SOFTWARE, Ohio).

oxytocin receptors = molecular target: T2, oxytocin receptors (Rattus norvegicus, UniProt P70536); experiment: Oxytocin Receptor Binding; parameters: species or system Sprague-Dawley rat
T2 construct: The uteri are dissected out, cleaned of fat and connective tissues; from tissue; host or cells: uterus of DES-treated female Sprague-Dawley rats
T2 sequence (P70536 1-388): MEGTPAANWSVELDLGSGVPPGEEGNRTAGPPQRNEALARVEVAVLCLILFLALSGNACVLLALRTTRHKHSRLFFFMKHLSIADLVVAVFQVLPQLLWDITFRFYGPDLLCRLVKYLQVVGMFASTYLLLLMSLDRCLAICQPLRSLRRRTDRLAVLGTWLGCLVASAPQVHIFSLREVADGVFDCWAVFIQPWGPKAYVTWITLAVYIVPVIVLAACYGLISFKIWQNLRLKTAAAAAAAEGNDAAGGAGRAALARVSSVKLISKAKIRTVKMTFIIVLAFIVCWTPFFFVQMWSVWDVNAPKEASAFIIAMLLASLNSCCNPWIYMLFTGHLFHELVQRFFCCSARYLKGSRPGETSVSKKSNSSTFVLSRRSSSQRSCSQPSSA
Description: Oxytocin Receptor Binding
Female Sprague-Dawley rats weighing approximately 200-250 g are injected intramuscularly (i.m.) with 0.3 mg/kg of body weight of diethylstilbestrol (DES). The rats are sacrificed 18 hours later under pentobarbital anesthesia. The uteri are dissected out, cleaned of fat and connective tissues and rinsed in 50 ml of normal saline. The tissue pooled from six rats is homogenized in 50 ml of […] TriS.HCl, containing 0.5 mM dithiothreitol and 1.0 mM EDTA, adjusted to pH 7.4, using a polytron at setting 6 with three passes of 10 sec each. The homogenate is passed through two (2) layers of cheesecloth and the filtrate contrifuged at 1000×g for 10 min. The clear supernatant is removed and recentrifuged at 165,000×g for 30 min. The resulting pellet containing the oxytocin receptors is resuspended in 50.0 mM Tris.HCl containing 5.0 mM MgCl2 at pH 7.4, to give a protein concentration of 2.5 mg/ml of tissue suspension. This preparation is used in subsequent binding assays with [^3 H]Oxytocin.
Binding of 3,5-[^3 H]Oxytocin ([^3 H]OT) to its receptors is done in microtiter plates using [^3 H]OT, at various concentrations, in an assay buffer of 50.0 mM Tris.HCl, pH 7.4 and containing 5.0 mM MgCl2, and a mixture of protease inhibitors: BSA, 0.1 mg; aprotinin, 1.0 mg; 1,10-phenanthroline, 2.0 mg; […], 10.0 mg; and PMSF, 0.3 mg per 100 ml of buffer solution. Non-specific binding is determined in the presence of 1.0 uM unlabeled OT. The binding reaction is terminated after 60 min., at 22° C., by rapid filtration through glass fiber filters using a Brandel® cell harvester (Biomedical Research and Development Laboratories, Inc., Gaithersburg, Md.). Competition experiments are conducted at equilibrium using 1.0 nM [^3 H]OT and varying the concentration of the displacing agents. The concentrations of agent displacing 50% of [^3 H]OT at its sites (IC50) are calculated by a computer assisted LUNDON-2 program (LUNDON SOFTWARE INC., Ohio, U.S.A.).

Vasopressin V2 = Vasopressin V2 Antagonist Activity in Conscious Hydrated Rats; assay type: in vivo, rat; settings: 10 mg/kg orally, N = 2, AVP 0.4 μg/kg intraperitoneally; for Osmolality (mOsm/kg): urine
Description: Vasopressin V2 Antagonist Activity in Conscious Hyrdated Rats
Conscious hydrated rats are treated with compounds under study from 0.1 to 100 mg/kg orally or vehicle. Two to four rats are used for each compound. One hour later, arginine vasopressin (AVP, antidiuretic hormone, ADH) dissolved in peanut oil is administered at 0.4 μg/kg intraperitoneally. Two rats in each test would not receive arginine vasopressin but only the vehicle (peanut oil) to serve as water-loading control. Twenty minutes later each rat is given 30 mL/kg of deionized water orally by gavage and is placed individually in a metabolic cage equipped with a funnel and a graduated glass cylinder to collect urine for four hours. Urine volume is measured and osmolality analyzed by use of a Fiske One-Ten osmometer (Fiske Assoc., Norwood, Mass. U.S.A.). Urinary sodium, potassium, and chloride are analyzed by use of ion-specific electrodes in a Beckman E3(Electrolyte 3) Analyzer.
In the following results, […] and decreased osmolality relative to AVP-control indicates activity.

[2] = molecular target: T3, V1 Receptor Subtype in Human Platelet (Homo sapiens, UniProt P37288); experiment: Binding to Vasopressin V1 Receptor Subtype in Human Platelet Membranes
T3 construct: from tissue; host or cells: human platelets (platelet rich plasma from Hudson Valley Blood Services)
Description: Radioligand Binding Experiments with Human Platelet Membranes
Platelet Source: Hudson Valley Blood Services, Westchester Medical Center, Valhalla, N.Y.
Frozen platelet rich plasma (PRP), received from the Hudson Valley Blood Services are thawed to room temperature. The tubes containing the PRP are centrifuged at 16,000×g for 10 min. at 4° C. and the supernatant fluid discarded. The platelets resuspended in an equal volume of 50.0 mM Tris.HCl, pH 7.5 containing 120 mM NaCl and 20.0 mM EDTA. The suspension is recentrifuged at 16,000×g for 10 min. This washing step is repeated one more time. The wash is discarded and the lysed pellets homogenized in low ionic strength buffer of Tris.HCl, 5.0 mM, pH 7.5 containing 5.0 mM EDTA. The homogenate is centrifuged at 39,000×g for 10 min. The resulting pellet is resuspended in Tris.HCl buffer, 70.0 mM, pH 7.5 and recentrifuged at 39,000×g for 10 min. The final pellet is resuspended in 50.0 mM Tris.HCl buffer pH 7.4 containing 120 mM NaCl and 5.0 mM HCl to give 1.0-2.0 mg protein per ml of suspension.
Binding to Vasopressin V1 Receptor Subtype in Human Platelet Membranes:
In wells of a 96 well format microtiter plate, add 100 μl of 50.0 mM Tris.HCl buffer containing 0.2% BSA and a mixture of protease inhibitors (aprotinin, leupeptin etc.). Then add 20 μl of [^3 H]Ligand: (Manning or Arg^8 Vasopressin), to give final concentrations ranging from 0.01 to 10.0 nM. Initiate the binding by adding 80.0 μl of platelet suspension (approx. 100 μg protein). Mix all reagents by pipetting the mixture up and down a few times. Non-specific binding is measured in the presence of 1.0 μM of unlabeled ligand (Manning or Arg^8 Vasopressin). Let the mixture stand undisturbed at room temperature for ninety (90) min. Upon this time, rapidly filter off the incubate under vacuum suction over GF/B filters, using a Brandel® Harvester. Determine the radioactivity caught on the filter disks by the addition of liquid scintillant and counting in a liquid scintillator

T1 sequence (Q00788 whole entry): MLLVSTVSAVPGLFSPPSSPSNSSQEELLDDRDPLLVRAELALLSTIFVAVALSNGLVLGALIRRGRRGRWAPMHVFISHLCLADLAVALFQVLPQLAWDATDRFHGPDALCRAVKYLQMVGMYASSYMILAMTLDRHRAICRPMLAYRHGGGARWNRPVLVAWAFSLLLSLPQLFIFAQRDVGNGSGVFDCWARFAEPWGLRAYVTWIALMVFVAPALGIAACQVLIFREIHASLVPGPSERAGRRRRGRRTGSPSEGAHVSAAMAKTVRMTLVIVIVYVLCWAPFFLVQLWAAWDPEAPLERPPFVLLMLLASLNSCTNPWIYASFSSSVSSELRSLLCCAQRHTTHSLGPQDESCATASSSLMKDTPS
T3 sequence (P37288 whole entry): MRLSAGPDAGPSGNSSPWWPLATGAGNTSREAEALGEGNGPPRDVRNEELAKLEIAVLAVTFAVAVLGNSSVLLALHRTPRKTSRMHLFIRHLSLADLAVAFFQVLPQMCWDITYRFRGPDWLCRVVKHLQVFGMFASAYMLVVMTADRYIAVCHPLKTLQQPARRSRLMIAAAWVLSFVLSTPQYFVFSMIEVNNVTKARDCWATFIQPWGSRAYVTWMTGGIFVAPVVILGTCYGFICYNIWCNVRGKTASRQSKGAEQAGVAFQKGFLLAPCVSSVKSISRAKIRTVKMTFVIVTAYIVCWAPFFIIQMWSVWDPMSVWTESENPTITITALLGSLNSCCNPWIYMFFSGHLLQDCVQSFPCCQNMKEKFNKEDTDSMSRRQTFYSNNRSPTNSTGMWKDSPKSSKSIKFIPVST

IC50 [1] [µM]	inhibition at 10 µM (oxytocin receptors) [%]	Structure (SMILES)	Urine Vol. (ml/4 hrs.) (Vasopressin V2)	Osmolality (mOsm/kg) (Vasopressin V2)	also measured
0.0061		Cc1ccc(F)cc1C(=O)Nc1ccc(C(=O)N2CCc3c[nH]nc3-c3sccc32)c(Cl)c1 [Example 3, N-[4-[(4,5-Dihydropyrazolo[3,4]thieno[3,2-b]azepin-6-(1H)-yl)carbonyl]-3-chlorophenyl]-5-fluoro-2-methylbenzamide]			
0.036		O=C(Nc1ccc(C(=O)N2CCc3cn[nH]c3-c3sccc32)c(Cl)c1)c1cc(Cl)ccc1F [Example 4, N-[4-[(4,5-Dihydropyrazolo[3,4-d]thieno[3,2-b]azepin-6(1H)-yl)carbonyl]-3-chlorophenyl]-5-chloro-2-fluorobenzamide]			
	47	Cn1cc2c(n1)-c1sccc1N(C(=O)c1ccc(NC(=O)c3ccc(Cl)cc3Cl)cc1)CC2 [Example 5, N-[4-[[4,5-Dihydro-2-methylpyrazolo[3,4-d]thieno[3,2-b]-azepin-6-(2H)-yl]carbonyl]phenyl]2,4-dichlorobenzamide]			
	65	Cc1ccccc1C(=O)Nc1ccc(C(=O)N2CCc3c[nH]nc3-c3sccc32)cc1 [Example 7, N-[4-[[4,5-Dihydropyrazolo[3,4-d]thieno[3,2-b]azepin-6(2H)-yl]carbonyl]phenyl]-2-methylbenzamide]	20.8	322	
0.55		Cc1ccc(F)cc1C(=O)Nc1ccc(C(=O)N2CCc3cn[nH]c3-c3cccnc32)cc1 [Example 16, N-[4-[(4,5-Dihydropyrazolo[3,4-d]pyrido[2,3-b]azepin-6(1H)-yl)carbonyl]phenyl]-5-fluoro-2-methylbenzamide]			IC50 ([2]; *Binding to V1 Receptor Subtype in Human Platelet): 3.3 µM
	57	Cc1ccccc1C(=O)Nc1ccc(C(=O)N2CCc3cn(C)nc3-c3sccc32)cc1 [Example 361]			IC50 (oxytocin receptors; 1.0 nM [^3 H]OT, 60 min., 22° C.): 6.4 µM
		O=C(c1ccc(-c2ccccc2)cc1)N1CCc2cn[nH]c2-c2ncccc21 [Example 364, 6-([1,1'-Biphenyl]-4-ylcarbonyl)-1,4,5,6-tetrahydropyrazolo[3,4-d]pyrido[3,2-b]azepine]			inhibition at 10 µM ([2]; 1.5 h, *Human Platelet V1, at 10 μM): 77%; inhibition at 1 µM ([1]; Rat Kidney Medullary V2, at 1 μM): 17%
		O=C(Nc1ccc(C(=O)N2CCc3cn[nH]c3-c3ncccc32)c(Cl)c1)c1ccccc1-c1ccccc1 [Example 366, N-[4-[(4,5-Dihydropyrazolo[3,4-d]pyrido[3,2-b]azepin-6(1H)-yl)carbonyl]-3-chlorophenyl][1,1'-biphenyl]-2-carboxamide]	17.8	431	
		O=C(Nc1ccc(C(=O)N2CCc3c[nH]nc3-c3ncccc32)cn1)c1ccccc1-c1ccccc1 [Example 368, N-[5-[(4,5-Dihydro[3,4-d]pyrido[3,2-b]azepin-6(1H)-yl)carbonyl]-2-pyridinyl][1,1'-biphenyl]-2-carboxamide]	20.3	371	
